Consider two compounds from PMC2137757 (The Journal of Experimental Medicine, 1964).

Where two headings read alike, the source gives them in different places. A value given as a limit tells only on which side of the number the result lay.

In series [1] the test system is adrenal cortex. The series is described as follows: Adrenal damage.
Series [2] in a line: Survival after a single feeding. The settings on record: 30 mg, animals invariably succumbed.
The test system of series [3] is acid-insoluble residue (DNA) of liver. The settings on record: 7,12-DMBA 5 mg i.v. at -4 hours; TdRH3 at 0 hours; liver at +20 hours; Fig. 3.
Series [4] concerns adrenal cortex. The settings on record: cited from earlier work.
Series [5] relates to menadione reductase (EC 1.6.5.2). The series is described as follows: Induction of menadione reductase in tissues. The format is in vivo, rat.
Series [6] concerns adrenal cortex. The settings on record: single preliminary feeding; cited from earlier work.
In series [7] the test system is deoxyribonucleic acid of adrenal. The format is in vivo, rat. The settings on record: Table VII.
Series [8] in a line: Solubility of hydrocarbons in sesame oil. The settings on record: room temperature; approximately.
Series [9] relates to adrenal cortex. The series is described as follows: Induced protection of adrenal against 7,12-DMBA. The format is in vivo, rat.
[10] abbreviates: 7,12-DMBA oral 10 mg at -48 hrs.
The mark [11] stands for this setting: 7,12-DMBA oral 10 mg at -48 hrs, 7,12-DMBA 5 mg i.v. at -4 hrs.

`CN(C)c1ccc(C=Cc2ccccc2)cc1` [4-dimethylaminostilbene]: in the series on adrenal cortex [1] (feeding, 30 mg), the Adrenal necrosis result is given as “did not induce necrosis”. Moreover, the Time to death in [2] is no more than 5 days.
With `Cc1c2ccccc2c(C)c2c1ccc1ccccc12` [7,12-DMBA, 7,12-Dimethylbenz[a]anthracene], in series [3], the “Incorporation of tritium into acid-insoluble residue of liver” value is reported as 56 per cent of control values. In the series with adrenal cortex [4] (intravenous), the “Intravenous amount that itself causes adrenal necrosis” value was no less than 2 mg. Besides, the Adrenal apoplexy entry in the series on adrenal cortex [4] (single feeding 30 mg, adult rats) is recorded as “induces adrenal apoplexy in all adult rats”; in the series on adrenal cortex [1] (Table I, 7,12-DMBA 30 mg/kg i.v., age 30 days, adrenals 72 hours later, 8 rats) it was 0; in the series with adrenal cortex [1] (Table I, 7,12-DMBA 30 mg/kg i.v., age 35 days, 8 rats), 6/8; with adrenal cortex [1] (Table I, 7,12-DMBA 30 mg/kg i.v., age 40 days, 8 rats), 8/8; in the series with adrenal cortex [1] (Table I, 7,12-DMBA 30 mg/kg i.v., age 42 days, 8 rats), 8/8; in the series on adrenal cortex [1] (Table I, 7,12-DMBA 30 mg/kg i.v., age 45 days, 8 rats) it was 8/8. The Adrenal apoplexy entry with adrenal cortex [1] (feeding of 5 mg) is listed as “failed to induce apoplexy”. Further, the Hepatic menadione reductase in series [5] (7,12-DMBA 5 mg i.v. at 0 hours, lipide at 24 hours, measured at 48 hours, Fig. 5) is recorded as 269 per cent of controls. Further, the “Time of first rise in hepatic menadione reductase” value in [5] (7,12-DMBA 5 mg intravenous, Fig. 3) was 3 h. Besides, the “Time of first elevation in hepatic menadione reductase” value in [5] (7,12-DMBA 5 mg oral, Fig. 3) amounted to 8 h. The Adrenal hemorrhage entry in the series on adrenal cortex [1] (5 mg given by vein) was “invariably caused adrenal hemorrhage”. The “Protection of adrenal from damage by a large dose of 7,12-DMBA” value in the series on adrenal cortex [6] is “protects”. For the same compound, the “Tritium content of adrenal, per cent of controls” value in series [7] (7,12-DMBA 5 mg i.v. at -4 hrs) is reported as 40 per cent; in series [7] (setting [10]), 91 per cent; in [7] (setting [11]), 48 per cent. The “Tritium content of adrenal” value in [7] (setting [10]) is reported as 0.120 ~clgm; in [7] (setting [11]), 0.064 ~clgm. Besides, in series [8], the “Solubility w/v in sesame oil” value is reported as roughly 10 per cent. For the same compound, in the series with adrenal cortex [9] (1 mg by intravenous injection on day -1, group of 8), the Rats protected is listed as 5. Besides, the Adrenal protection result with adrenal cortex [9] (0.5 to 1.5 mg injected intravenously as protector on day -1) is on record as “no amount was found which induced complete protection”; in the series with adrenal cortex [9] (single feeding 2 mg to 10 mg, 1 day prior to 7,12-DMBA 5 mg i.v.), “protected adrenals completely”.
